What all share (assay type): cell-based
Assay [1] has as its system Alternaria alternata. In words: Fungus resistance test for painted surfaces containing antifungal additives (defacement rating). The note with it: +100 μg/mL in Olympic Home paint. As to the method:
(§1) A Defacement Rating is measured by estimating the percentage of surface defacement with 10 being no defacement and 0 begin completely defaced.
(§2) This test was used to evaluate the resistance of paint films containing antifungal additives to surface fungal growth.
(§3) Olympic® Home interior flat latex paint (PPG Industries, Pittsburgh, Pa.) and Valspar® QuikHide White flat interior paint (Valspar Corporation, Minneapolis, Minn.) were used for all studies unless otherwise noted. Stock solutions of the antifungal additives of interest were prepared in reagent grade dimethyl sulfoxide (DMSO; Alfa Aesar, Ward Hill, Mass.). Additives were spiked (by adding appropriate amounts of the antifungal stock solutions) into the liquid paint at specified concentrations. Samples of the additive-spiked paint were vigorously mixed with a vortex mixer for at least one minute to ensure uniform dispersion of the additive in the paint. […] Studies that use other brands of paint followed the same protocol as described for those using the Olympic® Home interior flat latex paint and Valspar® QuikHide paint.
(§4) Test surfaces were prepared in triplicate. In most cases, the tested conditions were repeated on a different date, again in triplicate. […] Two coats of paint were applied with a polyester brush to completely cover both faces of the filter paper disc, allowing at least four hours drying time between coats.
(§5) Nutrient-Salts Agar (NSA) medium was prepared according to ASTM method G21-13 in 100×15 mm sterile polystyrene petri dishes (VWR® Radnor, Pa.) with a solidified agar layer of about 3 to about 6 mm (⅛ to ¼ in.) in depth. The agar was allowed to solidify for at least 24 hours before being used. The painted test filter paper discs were placed in the center of the agar plates in a biosafety hood while wearing clean nitrile gloves.
(§6) The paint coatings were evaluated against three representative cellulose-supportable fungi: Stachybotrys chartarum, Penicillium chrysogenum, and Alternaria alternata. […] Fungal isolates of Alternaria alternata and Penicillium chrysogenum were obtained from the Plant Pathology and Environmental Microbiology Department at Penn State University.
(§7) A spore suspension of each of these fungi was prepared by pouring a 20-mL portion of autoclaved deionized water containing 0.01% Tween® 20 onto a subculture of each fungal species. Spores were counted with the use of a hemocytometer (Hausser Scientific, Horsham, Pa.) under a compound light microscope. Spore suspensions of Stachybotrys chartarum and Penicillium chrysogenum were diluted to 1×10^6 spores/mL with autoclaved deionized water. Spore suspensions of Alternaria alternata were used “as is” in the range of 200,000 to 400,000 spores/mL.
(§8) Painted test surfaces were inoculated with a spray bottle or with a sterile cotton-tipped applicator. To inoculate the sample with a spray bottle, the spore suspension was sprayed twice on the painted test discs with an autoclaved spray bottle that delivered approximately 0.14 g of fluid per spray. To inoculate the sample with a cotton-tipped applicator, an autoclaved cotton-tipped applicator was submerged in approximately 400 μL of the spore inoculum solution (spore concentrations described above) and applied evenly over the surface of the painted test surface twice. A fresh autoclaved cotton-tipped applicator was used for the application of each painted disc. All the paint studies with Alternaria alternata and Stachybotrys chartarum were inoculated using the spray bottle method. For studies with Penicillium chrysogenum using Olympic® Home paint, the spray bottle inoculation method was used. For studies with Penicillium chrysogenum using Valspar® QuikHide paint, the cotton-tipped applicator inoculation method was used.
(§9) After inoculation, the NSA agar plates were sealed with Parafilm®.

Assay [2] relates to Penicillium chrysogenum. The description is as above. As to the method: as §1, §2, §3, §4, §5, §6, §7, §8, §9
The test system of assay [3] is Stachybotrys chartarum. The description is as above. To be noted: +100 μg/mL in Olympic Home paint. As to the method:
as §1, §2, §3, §4, §5, §6, §7, §8, §9

For assay [4], the system named is Alternaria alternata. The assay can be described thus: Fungus resistance test after painting over fungal growth (defacement rating). The note with it: painted over fungal growth, +100 μg/mL in Olympic Home paint.
Text: (§10) In this series of experiments, fungal growth was allowed to cover a painted surface (surface containing 2 coats of the unaltered paint) to a defacement rating of 3-5, forming a ‘contaminated surface’. […] The paint application was extended approximately 1-2 cm beyond the edge of the disc onto the NSA medium. Each formulation used a separate brush to avoid cross contamination. The re-painted discs were placed back into the humid environment with elevated temperature to encourage fungal growth.
(§11) This test was used to evaluate the ability of paint films containing antifungal additives to prevent the re-emergence of fungal growth after painting over existing growth.
(§12) Olympic® Home interior flat latex paint (PPG Industries, Pittsburgh, Pa.) and Valspar® QuikHide White flat interior paint (Valspar Corporation, Minneapolis, Minn.) were used for the experiments in this study unless specified. Stock solutions of the antifungal additives of interest were prepared in reagent grade dimethyl sulfoxide (DMSO; Alfa Aesar, Ward Hill, Mass.). Additives were spiked (by adding appropriate amounts of the antifungal stock solutions) into the liquid paint at specified concentrations. Samples of additive-spiked paint were vigorously mixed with a vortex mixer for at least one minute to insure uniform dispersion of the additive in the paint. […] Studies that used other brands of paint followed the same protocol as described for those using the Olympic® Home interior flat latex paint.
as §4
(§13) Nutrient-Salts Agar (NSA) media was prepared according to ASTM method G21-13 in 100×15 mm sterile polystyrene petri dishes (VWR® Radnor, Pa.) with a solidified agar layer from 3 to 6 mm (⅛ to ¼ in.) in depth. The agar was allowed to solidify for at least 24 hours before being used. The painted test filter paper discs were placed in the center of the agar plates in a biosafety hood while wearing clean nitrile gloves.
(§14) The paint coatings were evaluated against three representative fungi: Stachybotrys chartarum, Penicillium chrysogenum, and Alternaria alternata. […] Fungal isolates of Alternaria alternata and Penicillium chrysogenum were obtained from the Plant Pathology and Environmental Microbiology Department at Penn State University.
(§15) A spore suspension of each of these fungi was prepared by pouring a 20-mL portion of autoclaved deionized water containing 0.01% Tween® 20 onto a subculture of each fungal species. Spores were counted with the use of a hemocytometer (Hausser Scientific, Horsham, Pa.) under a microscope. Spore suspensions of Stachybotrys chartarum and Penicillium chrysogenum were diluted to 1×10^6 spores/mL with autoclaved deionized water. Spore suspensions of Alternaria alternata were used “as is” in the range of 200,000 to 400,000 spores/mL.
(§16) Painted test surfaces were inoculated with a spray bottle or with a cotton-tipped applicator. To inoculate the sample with a spray bottle, the spore suspension was sprayed twice on the painted test discs with a spray bottle that delivered approximately 0.14 g of fluid per spray. To inoculate the sample with a cotton-tipped applicator, an autoclaved cotton-tipped applicator was submerged in approximately 400 μL of the inoculum solution and applied evenly over the surface of the painted test surface twice.

For assay [5], the system named is Penicillium chrysogenum. The description is as above. To be noted: painted over fungal growth, +200 μg/mL in Valspar QuikHide paint.
Text: as §10, §11, §12, §4, §13, §14, §15, §16

For assay [6], the system named is Stachybotrys chartarum. The assay is described as above. To be noted: for Average defacement rating ± standard deviation: painted over fungal growth, +100 μg/mL in Olympic Home paint; for ability to inhibit Stachybotrys chartarum re-emergence on the surfaces: painting over contaminated surfaces, paints containing 100 μg/mL, after 7 days.
Text: as §10, §11, §12, §4, §13, §14, §15, §16

Assay [7] deals with Alternaria alternata. In words: 3 day MIC, broth microdilution in 25% PDB. To be noted: 72 h, 25% PDB, read-out: 3 day MIC. As to the method: (§17) Stock solutions (concentrations of between 4,000 μg/mL to 10,000 μg/mL; stored at −18° C.) of the above antifungals were prepared in dimethyl sulfoxide (DMSO). The stock solutions were further diluted into sterile 25% potato dextrose broth (PDB) so that the diluted solutions could be used for the antifungal susceptibility studies. This way, a typical microdilution study would reach a final ratio of about 0.5-2% v/v of DMSO in 25% PDB.
(§18) Spore inocula were prepared in sterile distilled water with 0.1% Tween® 20 (a polysorbate surfactant), and a hemocytometer was used to determine the spore density. Typically, the spore inoculum was prepared fresh prior to each study, and the inoculum was appropriately diluted to a final concentration of 0.4-1×10^5 spores/mL or colony-forming unit (CFU)/mL in each study. The spore suspension can be stored in a refrigerator at 4° C. for up to one week.
(§19) The studies were performed in flat bottom, 96-well microtiter plates (Greiner Bio-One, Frickenhausen, Germany).
(§20) Plates sealed with clear polyester film (VWR, Radnor, Pa.) were incubated at a temperature of about 25° C. The progress of fungal growth was monitored at 48 hours and 72 hours.
In general terms: Broth dilution looks for growth in wells or tubes with falling amounts of substance.

Assay [8] has as its system Stachybotrys chartarum. The assay can be described thus: 3 day MIC, broth microdilution in 25% PDB. The note with it: 72 h, 25% PDB, read-out: 3 day MIC. As to the method: as §17, §18, §19, §20
In assay [9] the test system is Penicillium brevicompactum. The assay can be described thus: 3 day MIC, broth microdilution in 25% PDB. To be noted: 72 h, 25% PDB, read-out: 3 day MIC. As to the method: as §17, §18, §19, §20
The subject of assay [10] is Penicillium chrysogenum. The assay can be described thus: 3 day MIC, broth microdilution in 25% PDB. The note with it: 72 h, 25% PDB, read-out: 3 day MIC. As to the method: as §17, §18, §19, §20
A further assay concerns Penicillium corylophilum. The assay can be described thus: 3 day MIC, broth microdilution in 25% PDB. To be noted: 72 h, 25% PDB, read-out: 3 day MIC. As to the method:
as §17, §18, §19, §20

The test system of a further assay is Penicillium purpurogenum. The assay can be described thus: 3 day MIC, broth microdilution in 25% PDB. To be noted: 72 h; Penicillium purpurogenum; 25% PDB; read-out: 3 day MIC. As to the method:
as §17, §18, §19, §20

Molecules are shown by their SMILES. In brackets after ≈: the same amount, converted by molar mass.

For the compound `OB1OCc2ccccc21` [Compound B0, 2-(hydroxymethyl)-benzene boronic acid hemiester], the “Average defacement rating ± standard deviation” value in the assay with Alternaria alternata [1] (7 days) is 2.3 ± 2.3; in the assay with Alternaria alternata [1] (14 days), 0.5 ± 1.8; in the assay on Alternaria alternata [1] (21 days) it was 0.0 ± 0.0; in the assay with Penicillium chrysogenum [2] (+100 μg/mL in Olympic Home paint, 7 days), 2.7 ± 0.8; in the assay with Penicillium chrysogenum [2] (+100 μg/mL in Olympic Home paint, 14 days) it was 0.0 ± 0.0; with Penicillium chrysogenum [2] (+100 μg/mL in Olympic Home paint, 21 days), 0.0 ± 0.0. Besides, the “Average defacement rating ± standard deviation” value in the assay on Penicillium chrysogenum [2] (+200 μg/mL in Olympic Home paint, 7 days) came to 10.0 ± 0.0; in the assay with Penicillium chrysogenum [2] (+200 μg/mL in Olympic Home paint, 14 days) it was 6.8 ± 4.0; in the assay with Penicillium chrysogenum [2] (+200 μg/mL in Olympic Home paint, 21 days), 5.0 ± 5.5; in the assay on Penicillium chrysogenum [2] (+200 μg/mL in Valspar QuikHide paint, 7 days) it was 10.0 ± 0.0; in the assay on Penicillium chrysogenum [2] (+200 μg/mL in Valspar QuikHide paint, 14 days), 6.8 ± 4.0; in the assay with Penicillium chrysogenum [2] (+200 μg/mL in Valspar QuikHide paint, 21 days), 5.0 ± 5.5. For the same compound, the “Average defacement rating ± standard deviation” value with Stachybotrys chartarum [3] (7 days) is reported as 0.7 ± 1.3; in the assay on Stachybotrys chartarum [3] (14 days) it was 0.0 ± 0.0; in the assay with Stachybotrys chartarum [3] (21 days), 0.0 ± 0.0; in the assay with Alternaria alternata [4] (7 days) it was 2.1 ± 1.6 (6); with Alternaria alternata [4] (14 days), 1.0 ± 1.3 (6); with Alternaria alternata [4] (21 days), 0.4 ± 0.6 (6). Besides, the “Average defacement rating ± standard deviation” value with Penicillium chrysogenum [5] (7 days) is 0.0 ± 0.0 (9); in the assay on Penicillium chrysogenum [5] (14 days) it was 0.0 ± 0.0 (9); in the assay on Penicillium chrysogenum [5] (21 days), 0.0 ± 0.0 (9); in the assay on Stachybotrys chartarum [6] (7 days), 6.1 ± 3.3 (9); in the assay with Stachybotrys chartarum [6] (14 days) it was 4.4 ± 3.0 (9); in the assay with Stachybotrys chartarum [6] (21 days) it was 3.9 ± 2.9 (9).

What is called MIC is the smallest concentration in the dilution series that meets the test's criterion for growth inhibition. Regarding `OB1OCCc2cc(F)ccc21` [Compound B5, 6-fluoro-3,4-dihydro-1H-2,1-benzoxaborinin-1-ol], the MIC was found to be 200 µg/mL (≈ 1210 µM) in the assay on Alternaria alternata [7] and 6.3 µg/mL (≈ 38 µM) in the assay with Stachybotrys chartarum [8]. The “ability to inhibit Stachybotrys chartarum re-emergence on the surfaces” value with Stachybotrys chartarum [6] is given as “very little ability to inhibit”.

With `Nc1ccc2c(c1)B(O)OCC2` [Compound B7, 7-amino-3,4-dihydro-1H-2,1-benzoxaborinin-1-ol], the figures for the MIC in the assay with Alternaria alternata [7] and in the assay on Stachybotrys chartarum [8] were above 200 µg/mL and 25 µg/mL (≈ 153 µM), respectively. In the assay with Stachybotrys chartarum [6], the “ability to inhibit Stachybotrys chartarum re-emergence on the surfaces” value was “very little ability to inhibit”.

Turning to `O=C(O)c1ccc2c(c1)COB2O` [Compound B10, 1-hydroxy-1,3-dihydro-2,1-benzoxaborole-5-carboxylic acid], the MIC in the assay with Alternaria alternata [7] was 200 µg/mL (≈ 1120 µM); in [9], above 200 µg/mL; in the assay on Penicillium chrysogenum [10], above 200 µg/mL; with Penicillium corylophilum, above 200 µg/mL; in the assay on Penicillium purpurogenum it was above 200 µg/mL; with Stachybotrys chartarum [8], 100 µg/mL (≈ 562 µM).

With `N#Cc1ccc2c(c1)COB2O` [Compound B11, 1-hydroxy-1,3-dihydro-2,1-benzoxaborole-5-carbonitirile], the MIC in the assay on Alternaria alternata [7] stood at 100 µg/mL (≈ 629 µM); in [9], 50 µg/mL (≈ 315 µM); with Penicillium chrysogenum [10], 100 µg/mL (≈ 629 µM); in the assay on Penicillium corylophilum it was 100 µg/mL (≈ 629 µM); with Penicillium purpurogenum, 25 µg/mL (≈ 157 µM); with Stachybotrys chartarum [8] it was 12.5 µg/mL (≈ 78.6 µM).

Values taken from patent US10160867B2, “Benzoxaborole-containing coating resistant to cellulose-supportable fungus” (THE PENN STATE RESEARCH FOUNDATION, priority 2015, dated 2018).
